5 compounds from patent US8562945B2, “Technetium- and rhenium-bis(heteroaryl) complexes and methods of use thereof” (Molecular Insight Pharmaceuticals, Inc., priority 2008, dated 2013) can be followed below.

The data set in a line: Rat tissue distribution of 99mTc complexes of example ligands (Table 6). Conditions: 99mTc complex. The class given is in vivo, Sprague-Dawley Rats. On the procedure:
Rat Tissue Distribution Studies. The distribution and pharmacokinetics of selected ^99mTc-SAAC complexes were evaluated in normal male Sprague Dawley rats (180-200 grams) administered via the tail vein as a bolus injection (approximately 10 μCi/rat) in a constant volume of 0.1 ml. The animals (n=5 per time point) were euthanized by asphyxiation with carbon dioxide at 5, 30, 60, and 120 min post injection. Tissues (blood, heart, lungs, liver, spleen, kidneys, adrenals, stomach, intestines (with contents), testes, skeletal muscle, bone and brain) were dissected, excised, weighed wet, and counted in an automated γ-counter (LKB Model 1282, Wallac Oy, Finland). Tissue time-radioactivity levels expressed as percent injected dose per gram of tissue (% ID/g) was determined.
^99mTc Complexes of various example ligands in Sprague-Dawley Rats.

As to `N[C@@H](CCCCN(Cc1nccn1CC(=O)O)Cc1nccn1CC(=O)O)C(=O)O` (stereo in doubt) [Compound 2, 2,2′-(2,2′-(5-amino-5-carboxypentylazanediyl)bis(methylene)bis(1H-imidazole-2,1-diyl))diacetic acid], for the setting “5 min”, the Blood tissue distribution turned out to be 1.33 ± 0.2 % ID/g, the GI tissue distribution is reported as 0.15 ± 0.02 % ID/g, the Kidney tissue distribution worked out at 6.85 ± 1.85 % ID/g and the Liver tissue distribution came out at 0.52 ± 0.07 % ID/g. Further, the “Sk. Muscle tissue distribution” value (5 min) came to 0.29 ± 0.04 % ID/g. Further, under “30 min”, the Blood tissue distribution is recorded as 1.14 ± 0.23 % ID/g, the GI tissue distribution was determined as 0.44 ± 0.08 % ID/g, the Kidney tissue distribution came to 10.7 ± 2.3 % ID/g and the Liver tissue distribution is 0.55 ± 0.07 % ID/g. In addition, the “Sk. Muscle tissue distribution” value (30 min) was found to be 0.21 ± 0.06 % ID/g. For the setting “60 min”, this compound came in with a Blood tissue distribution of 0.86 ± 0.17 % ID/g, a GI tissue distribution of 0.76 ± 0.31 % ID/g, a Kidney tissue distribution of 16.8 ± 4.8 % ID/g and a Liver tissue distribution of 0.42 ± 0.08 % ID/g. Also, the “Sk. Muscle tissue distribution” value (60 min) is recorded as 0.16 ± 0.03 % ID/g. Under “120 min”, the Blood tissue distribution is recorded as 0.72 ± 0.12 % ID/g, the GI tissue distribution amounted to 1.22 ± 0.27 % ID/g, the Kidney tissue distribution is 10.2 ± 2.5 % ID/g and the Liver tissue distribution worked out at 0.39 ± 0.07 % ID/g. Besides, the “Sk. Muscle tissue distribution” value (120 min) was 0.14 ± 0.02 % ID/g.
Consider `CCOCCn1ccnc1CN(CCCC[C@H](N)C(=O)O)Cc1nccn1CCOCC` (stereo in doubt) [Compound 4, 2-amino-6-(bis((1-(2-ethoxyethyl)-1H-imidazol-2-yl)methyl)amino)hexanoic acid], for which, under “5 min”, the Blood tissue distribution worked out at 0.83 ± 0.09 % ID/g, the GI tissue distribution is on record as 0.57 ± 0.13 % ID/g, the Kidney tissue distribution turned out to be 6.86 ± 0.86 % ID/g and the Liver tissue distribution turned out to be 1.61 ± 0.32 % ID/g. For the same compound, under “5 min”, the “Sk. Muscle tissue distribution” value is 0.13 ± 0.02 % ID/g. For the setting “30 min”, this compound yielded a Blood tissue distribution of 0.09 ± 0.02 % ID/g, a GI tissue distribution of 2.33 ± 0.61 % ID/g, a Kidney tissue distribution of 12.13 ± 2.36 % ID/g and a Liver tissue distribution of 0.35 ± 0.08 % ID/g. Further, the “Sk. Muscle tissue distribution” value (30 min) is given as 0.02 ± 0.01 % ID/g. Where the note is “60 min”, this compound returned a Blood tissue distribution of 0.02 ± 0 % ID/g, a GI tissue distribution of 3.62 ± 0.3 % ID/g, a Kidney tissue distribution of 12.54 ± 1 % ID/g and a Liver tissue distribution of 0.28 ± 0.07 % ID/g. Moreover, the “Sk. Muscle tissue distribution” value (60 min) turned out to be 0.01 ± 0 % ID/g. Where the note is “120 min”, this compound returned a Blood tissue distribution of 0.01 ± 0 % ID/g, a GI tissue distribution of 2.96 ± 0.44 % ID/g, a Kidney tissue distribution of 12.54 ± 0.81 % ID/g and a Liver tissue distribution of 0.14 ± 0.02 % ID/g. Further, the “Sk. Muscle tissue distribution” value (120 min) turned out to be 0.01 ± 0 % ID/g.
Where the note is “5 min”, `COC(Cn1ccnc1CN(CCCC[C@H](N)C(=O)O)Cc1nccn1CC(OC)OC)OC` (stereo in doubt) [Compound 6, 2-amino-6-(bis((1-(2,2-dimethoxyethyl)-1H-imidazol-2-yl)methyl)amino)hexanoic acid] came in with a Blood tissue distribution of 1.46 ± 0.21 % ID/g, a GI tissue distribution of 0.34 ± 0.12 % ID/g, a Kidney tissue distribution of 13.82 ± 2.81 % ID/g and a Liver tissue distribution of 1.06 ± 0.34 % ID/g. In addition, the “Sk. Muscle tissue distribution” value (5 min) stood at 0.3 ± 0.04 % ID/g. Where the note is “30 min”, this compound returned a Blood tissue distribution of 0.47 ± 0.05 % ID/g, a GI tissue distribution of 1.05 ± 0.2 % ID/g, a Kidney tissue distribution of 34.1 ± 5.59 % ID/g and a Liver tissue distribution of 0.45 ± 0.04 % ID/g. Where the note is “30 min”, the “Sk. Muscle tissue distribution” value is given as 0.1 ± 0.01 % ID/g. For the setting “60 min”, this compound gave a Blood tissue distribution of 0.14 ± 0.04 % ID/g, a GI tissue distribution of 1.39 ± 0.24 % ID/g, a Kidney tissue distribution of 40.25 ± 5.17 % ID/g and a Liver tissue distribution of 0.24 ± 0.04 % ID/g. For the same compound, the “Sk. Muscle tissue distribution” value (60 min) is 0.04 ± 0.01 % ID/g. Under “120 min”, this compound yielded a Blood tissue distribution of 0.04 ± 0.01 % ID/g, a GI tissue distribution of 1.21 ± 0.27 % ID/g, a Kidney tissue distribution of 33.18 ± 2.75 % ID/g and a Liver tissue distribution of 0.16 ± 0.02 % ID/g. Also, the “Sk. Muscle tissue distribution” value (120 min) came to 0.01 ± 0 % ID/g.
On to `Cn1ccnc1CN(CCCC[C@H](N)C(=O)O)Cc1nccn1C` [Compound 13, (S)-2-amino-6-(bis((1-methyl-1H-imidazol-2-yl)methyl)amino)hexanoic acid], for which, where the note is “5 min”, the Blood tissue distribution came out at 1.18 ± 0.18 % ID/g, the GI tissue distribution was determined as 0.15 ± 0.02 % ID/g, the Kidney tissue distribution amounted to 6.65 ± 2.06 % ID/g and the Liver tissue distribution was 0.8 ± 0.28 % ID/g. For the same compound, the “Sk. Muscle tissue distribution” value (5 min) is listed as 0.22 ± 0.03 % ID/g. Under “30 min”, this compound gave a Blood tissue distribution of 0.28 ± 0.03 % ID/g, a GI tissue distribution of 0.45 ± 0.11 % ID/g, a Kidney tissue distribution of 22.2 ± 3.9 % ID/g and a Liver tissue distribution of 1.03 ± 0.21 % ID/g. For the same compound, where the note is “30 min”, the “Sk. Muscle tissue distribution” value was found to be 0.06 ± 0.02 % ID/g. Also, where the note is “60 min”, the Blood tissue distribution turned out to be 0.11 ± 0.02 % ID/g, the GI tissue distribution is on record as 0.84 ± 0.1 % ID/g, the Kidney tissue distribution is given as 25.4 ± 1.7 % ID/g and the Liver tissue distribution is 0.86 ± 0.16 % ID/g. In addition, for the setting “60 min”, the “Sk. Muscle tissue distribution” value came to 0.03 ± 0.01 % ID/g. For the setting “120 min”, this compound registered a Blood tissue distribution of 0.03 ± 0.01 % ID/g, a GI tissue distribution of 1.12 ± 0.37 % ID/g, a Kidney tissue distribution of 25.5 ± 3.4 % ID/g and a Liver tissue distribution of 0.74 ± 0.14 % ID/g. For the same compound, the “Sk. Muscle tissue distribution” value (120 min) was 0.01 ± 0 % ID/g.
Where the note is “5 min”, `Cn1ccnc1CN(CCCC[C@H](N)C(=O)O)CC(=O)O` [Compound 18, (S)-2-amino-6-((carboxymethyl)((1-methyl-1H-imidazol-2-yl)methyl)amino) hexanoic acid] came in with a Blood tissue distribution of 1.03 ± 0.14 % ID/g, a GI tissue distribution of 0.16 ± 0.01 % ID/g, a Kidney tissue distribution of 10.79 ± 1.97 % ID/g and a Liver tissue distribution of 0.95 ± 0.14 % ID/g. For the same compound, the “Sk. Muscle tissue distribution” value (5 min) is 0.21 ± 0.05 % ID/g. Under “30 min”, this compound registered a Blood tissue distribution of 0.45 ± 0.1 % ID/g, a GI tissue distribution of 1.96 ± 0.49 % ID/g, a Kidney tissue distribution of 17.05 ± 3.17 % ID/g and a Liver tissue distribution of 3.02 ± 0.59 % ID/g. Moreover, the “Sk. Muscle tissue distribution” value (30 min) came to 0.09 ± 0.02 % ID/g. Under “60 min”, this compound yielded a Blood tissue distribution of 0.22 ± 0.02 % ID/g, a GI tissue distribution of 1.64 ± 0.64 % ID/g, a Kidney tissue distribution of 9.52 ± 2.54 % ID/g and a Liver tissue distribution of 0.98 ± 0.22 % ID/g. The “Sk. Muscle tissue distribution” value (60 min) is 0.05 ± 0.01 % ID/g. Besides, under “120 min”, the Blood tissue distribution amounted to 0.09 ± 0.01 % ID/g, the GI tissue distribution stood at 2.53 ± 0.7 % ID/g, the Kidney tissue distribution was 3.94 ± 0.43 % ID/g and the Liver tissue distribution was 0.44 ± 0.14 % ID/g. Also, the “Sk. Muscle tissue distribution” value (120 min) was found to be 0.02 ± 0 % ID/g.
